Experimental data: paper PMC9168271, “Discovery of Novel Tetrahydro-β-carboline Containing Aminopeptidase N Inhibitors as Cancer Chemosensitizers” (Frontiers in Oncology, 2022)

What was measured:
[1] = biological target: Aminopeptidase N (APN, CD13) (Homo sapiens, UniProt P15144); experiment: APN enzyme inhibitory assay, supernatant of K562-CD13 cells as enzyme source, L-leucine-p-nitro anilide substrate; details: for inhibition at 30 µM: read-out: Inhibitory rate (%);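 on all read-outs here: substrate L-leucine-p-nitro anilide used at 1.6 mM, with enzyme from sonicated APN-overexpressing K562 cell lysate supernatant, run in 96-well plates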
Sequence of Aminopeptidase N (APN, CD13) (P15144 whole entry): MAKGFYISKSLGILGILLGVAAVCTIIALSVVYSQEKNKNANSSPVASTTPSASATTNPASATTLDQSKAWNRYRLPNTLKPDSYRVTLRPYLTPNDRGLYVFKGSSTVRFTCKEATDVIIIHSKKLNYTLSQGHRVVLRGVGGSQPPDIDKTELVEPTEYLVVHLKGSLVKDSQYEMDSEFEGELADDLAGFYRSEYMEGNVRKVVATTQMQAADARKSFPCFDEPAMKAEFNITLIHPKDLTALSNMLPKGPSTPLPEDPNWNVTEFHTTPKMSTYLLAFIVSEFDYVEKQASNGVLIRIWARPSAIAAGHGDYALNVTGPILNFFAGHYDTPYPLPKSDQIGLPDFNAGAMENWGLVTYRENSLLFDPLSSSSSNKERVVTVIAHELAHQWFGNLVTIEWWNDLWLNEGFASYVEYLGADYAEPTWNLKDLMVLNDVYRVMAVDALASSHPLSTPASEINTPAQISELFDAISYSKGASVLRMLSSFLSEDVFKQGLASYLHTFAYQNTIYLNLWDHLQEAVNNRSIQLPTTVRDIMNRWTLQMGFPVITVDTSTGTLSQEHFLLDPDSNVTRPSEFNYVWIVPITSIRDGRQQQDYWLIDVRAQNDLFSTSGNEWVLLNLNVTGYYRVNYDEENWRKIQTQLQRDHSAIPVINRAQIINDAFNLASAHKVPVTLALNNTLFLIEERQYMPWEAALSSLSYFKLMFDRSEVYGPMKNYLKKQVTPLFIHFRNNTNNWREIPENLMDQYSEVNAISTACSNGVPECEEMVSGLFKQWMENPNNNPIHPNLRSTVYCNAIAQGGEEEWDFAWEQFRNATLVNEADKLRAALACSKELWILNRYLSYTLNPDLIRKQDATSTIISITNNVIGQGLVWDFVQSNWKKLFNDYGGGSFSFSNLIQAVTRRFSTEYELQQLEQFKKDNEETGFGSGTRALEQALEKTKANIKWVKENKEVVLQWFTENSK
Experimental: In the enzyme inhibitory assay, K562-CD13 monoclonal cells were used as APN enzyme source as described in our previous work ([27]).
K562 cells with overexpression of APN were added into PBS for ultrasonic crushing, centrifuged for 10 minutes, and supernatant was taken as enzyme source and added into 96-well plate. Different concentrations of compounds were added subsequently, and 1.6 mM L-leucine-p-nitro anilide was used as substrate. After 30 minutes of reaction, the APN enzyme activity was measured at 405 nm absorbance. The inhibition rate of APN activity was analyzed by the formula (Od control OD tested)/Od control 100%.

[2] = system: MDA-MB-468 cells; experiment: Spheroid-formation assay; type: cell-based, human; details: 1 nM PTX + 1 µM APN inhibitor, 7 days
Experimental: (§1) Cancer stem cells (CSCs) play an important role in the resistance of cancer cells to chemotherapeutic drugs. APN has been reported to be a therapeutic target in human cancer stem cells ([18]). Therefore, the CSC based test was performed in the present study. Colony-formation assay and spheroid-formation assay are two commonly used methods to assess the capacity of CSCs in vitro. In the spheroid-formation assay, MDA-MB-231 and MDA-MB-468 cells were dispersed into single cells, inoculated into low-adherence 6-well plates, and added with stem cell sphere medium. The stem cell spheres became visible after 5-6 days incubation. […] It is known that mRNA levels of the stem cell biomarkers OCT-4, SOX-2 and Nanog are associated with the characteristics of TNBC stem cells ([30]). Therefore, RT-PCR was performed on the TNBC cells to detect the mRNA levels of these markers.
(§2) MDA-MB-231 cells and MDA-MB-468 cells in logarithmic growth phase were collected, stem cell sphere culture medium without serum (containing 50X B-27Supplement,100X N-2 Supplement,20 μg/L epidermal growth factor (EGF), 20µg/L insulin-like growth factor (IGF-1), 10 μg/L fibroblast growth factor (b-FGF), 20X Knock Out SR, 2mM L-Glutamine, 5mg/L Heparin sodium, 1X PENICILLIN-STREPTOMYCIN and DMEM: F12 (1:1) medium was added for the re-suspension and fully blown into single-cell suspension. The cells were diluted to 5,000/2 mL, with stem cell sphere culture medium, and cultured in a 37°C, 5% CO2 cell incubator. The number of stem cell spheres were observed every day. […]

[3] = system: MDA-MB-231 cells; experiment: Spheroid-formation assay; type: cell-based, human; details: 1 nM PTX + 1 µM APN inhibitor, 7 days
Experimental: as §1, §2

[4] = system: luciferase-expressing MDA-MB-231 cells; experiment: In vivo anticancer study, xenograft model in female nude mice; details: 20 mg/kg/d APN inhibitor + 10 mg/kg/3 days PTX; 3 weeks; n = 4
Experimental: To evaluate the in vivo anticancer potency of the combination of PTX-APN inhibitor, cancer xenograft model was established by inoculation of luciferase- expressing MDA-MB-231 cells to female nude mice. About 1×10^7 MDA-MB-231 cells were injected subcutaneously into the right fat pad of the fourth mammary gland of the mice. […] Significant tumor size variations were observed among different groups ( Figures 5A, B ). […] Moreover, no clear signs of toxicity in liver and spleen were detected in the sacrificed mice.
Female Nude mice aged 3 weeks were purchased from Hunan SJA Experimental Animal Company and raised under SPF aseptic conditions. About 1×10^7 luciferase overexpressing MDA-MB-231 cells were injected subcutaneously into the right fat pad of the fourth mammary gland of each mouse. […] PBS group animals received PBS via intraperitoneal injection, while 10 mg/kg/3 days of PTX was administered to animals in the PTX group. […] After 3 weeks of administration, each mouse was intraperitoneally injected with 200uL of fluorescein substrate (d-fluorescein potassium salt, 150mg/kg), and then anesthetized with isoflurane. In vivo fluorescence imaging system (IVIS Spectrum, PerkinElmer) and SlideBook4.0 software were utilized for the result analysis. After the imaging analysis, mice were sacrificed and dissected for the detection of tumor size and calculation of liver/spleen indexes. All animal experiments were approved by the Animal Care and Use Committee of Weifang Medical University.

[5] = system: CD13 (APN) expression in MDA-MB-231 cells; experiment: Flow cytometry of APN expression; type: cell-based, human; details: 48 h
Experimental: (§3) The cells were seeded in 6-well plates (4 × 10^5 cells/well) and treated with tested compounds for 48 h. Then, cells were collected into 1.5 mL EP tubes, washed twice with PBS, and centrifuged at 2500rpm for 5minutes. Cells were resuspended with 100μlof PBS, then 2μL/tube of APN antibody was added, followed by incubation in dark for 30 minutes at 4°C. Then the cells were subjected to flow cytometry (FACSAria II, Becton-Dickinson) for the expression of APN.

[6] = system: CD13 (APN) expression in MDA-MB-468 cells; experiment: Flow cytometry of APN expression; type: cell-based, human; details: 48 h
Experimental: as §3

[7] = system: MDA-MB-468 cells; experiment: Colony-formation assay; type: cell-based, human; details: 0.2 nM PTX + 1 µM APN inhibitor, 14 days
Experimental: as §1
(§4) 3000 cells were suspended in 2 mL medium, and seeded into the wells of six-well plate. After 12 hours of incubation, cells were treated with various compounds. Until each colony had more than 50 cells, this experiment terminated. Cells were washed twice with PBS and fixed with methanol for 10minutes. Then cells were stained with 1% crystal violet for 5minutes. Finally, colonies were washed and pictures were taken under a microscope (IX81, Olympus).

[8] = system: MDA-MB-231 cells; experiment: Colony-formation assay; type: cell-based, human; details: 0.2 nM PTX + 1 µM APN inhibitor, 14 days
Experimental: as §1, §4

[9] = system: MDA-MB-468 cells; experiment: Apoptosis analysis (Annexin V-FITC/PI); type: cell-based, human; details: 48 h
Experimental: (§5) Moreover, APN inhibitor-induced chemo-sensitization had been frequently reported for PTX ([17], [29]). Therefore, the combination of PTX-APN inhibitor was selected in the subsequent studies.
(§6) The cells were seeded in 6-well plates (3 × 10^5 cells/well) and treated with various compounds for 48 h. Then, cells were collected and washed twice with cold PBS. Annexin V-FITC staining solution was then added to the cells, and cells were incubated at 2-8°C for 15 minutes under dark conditions. Then, PI staining solution was added by gentle mix at 2-8°C. After 5 minutes of incubation under dark conditions, cells were tested with flow cytometry immediately.

[10] = system: MDA-MB-231 cells; experiment: Apoptosis analysis (Annexin V-FITC/PI); type: cell-based, human; details: 48 h
Experimental: as §5, §6

[11] = system: MDA-MB-468 cells; experiment: MTT antiproliferative assay, chemotherapeutic drug with APN inhibitor; type: cell-based, human; details: with PTX, EPB, CTX, CBP, 48 h
Excerpt: (§7) The combination of APN inhibitor and paclitaxel (PTX), has been employed for the treatment of human breast cancer. In the current study, molecules with good APN inhibitory potency (D12, D14 and D16) were selected and used in combination with several chemotherapeutic drugs, such as PTX, EPB, cyclophosphamide (CTX) and carboplatin (CBP) to investigate its inhibitory effect on breast cancer. Human triple negative breast cancer cell (TNBC) lines MDA-MB-231 and MDA-MB-468 were utilized in the in vitro studies. […] It was also observed that the synthesized molecules enhanced chemotherapeutic drug sensitivity in a dose dependent manner. Therefore, further analysis was performed to examine the synergistic effects of the derived APN inhibitors and chemotherapeutic drugs.
(§8) Then, 10μL of MTT solution (5 mg/mL) were added to each well. After incubation for 4h, the medium was carefully removed, and 100 μL DMSO was added to each well and fully dissolved in vibration for 10min. The optical density (OD) at 490 nm and 630 nm were measured with a microplate Spectrophotometer (M5, MD). IC50 values were obtained from at least 3 independent experiments.

[12] = system: MDA-MB-231 cells; experiment: as above; type: cell-based, human; details: with PTX, EPB, CTX, CBP, 48 h
Excerpt: as §7, §8

Compound	inhibition at 30 µM [1] [%]	number of tumor spheres formed, compared with control and PTX alone [2]	number of tumor spheres formed, compared with control and PTX alone [3]	anticancer effect of PTX (tumor weight) compared with single PTX administration group [4]	inhibitory rate (tumor), in combination with PTX [4] [%]	APN expression, combination with PTX compared with paclitaxel alone [5]	APN expression, combination with PTX compared with paclitaxel alone [6]	IC50 [1] [µM]	colony formation, compared with control and single PTX [7]	colony formation, compared with control and single PTX [8]	apoptotic rate in combination with PTX, compared with Bestatin [9]	apoptotic rate in combination with PTX, compared with Bestatin [10]	antiproliferative activity of chemotherapeutic drugs in combination with APN inhibitor [11]	antiproliferative activity of chemotherapeutic drugs in combination with APN inhibitor [12]
CC(C)C[C@H](NC(=O)[C@@H](O)[C@H](N)Cc1ccccc1)C(=O)O [Bestatin, reference compound]	53.9 ± 0.77	significant decrease in the number of tumor spheres	significant decrease in the number of tumor spheres	improved the anticancer effect of PTX	10.63	decreased APN expression	decreased APN expression							
O=C(Cn1c2c(c3ccccc31)CCN(C(=O)c1cccc(F)c1)C2)NO [Compound D12, 2-(2-(3-fluorobenzoyl)-1,2,3,4-tetrahydro-9H-pyrido[3,4-b]indol-9-yl)-N-hydroxyacetamide]	74.9 ± 4.35	significant decrease in the number of tumor spheres	significant decrease in the number of tumor spheres	improved the anticancer effect of PTX	54.02	decreased APN expression	decreased APN expression	8.92 ± 0.38	decreased the tumor sphere and colony formation abilities	decreased the tumor sphere and colony formation abilities	higher apoptotic rate	higher apoptotic rate	synergistically improved the antiproliferative activity of chemotherapeutic drugs	synergistically improved the antiproliferative activity of chemotherapeutic drugs
O=C(Cn1c2c(c3ccccc31)CCN(C(=O)c1ccccc1F)C2)NO [Compound D14, 2-(2-(2-fluorobenzoyl)-1,2,3,4-tetrahydro-9H-pyrido[3,4-b]indol-9-yl)-N-hydroxyacetamide]	74.3 ± 6.16	significant decrease in the number of tumor spheres	significant decrease in the number of tumor spheres	improved the anticancer effect of PTX	31.32	decreased APN expression	decreased APN expression	7.74 ± 0.33	decreased the tumor sphere and colony formation abilities	decreased the tumor sphere and colony formation abilities	higher apoptotic rate	higher apoptotic rate	synergistically improved the antiproliferative activity of chemotherapeutic drugs	synergistically improved the antiproliferative activity of chemotherapeutic drugs
Cc1ccccc1C(=O)N1CCc2c(n(CC(=O)NO)c3ccccc23)C1 [Compound D16, N-hydroxy-2-(2-(2-methylbenzoyl)-1,2,3,4-tetrahydro-9H-pyrido[3,4-b]indol-9-yl)acetamide]	74.5 ± 4.66	significant decrease in the number of tumor spheres	significant decrease in the number of tumor spheres	improved the anticancer effect of PTX	14.15	decreased APN expression	decreased APN expression	7.9 ± 0.27	decreased the tumor sphere and colony formation abilities	decreased the tumor sphere and colony formation abilities	higher apoptotic rate	higher apoptotic rate	synergistically improved the antiproliferative activity of chemotherapeutic drugs	synergistically improved the antiproliferative activity of chemotherapeutic drugs
